Patent publication EP0719267B1, “SECOND MESSENGER CELL SIGNALING INHIBITORS” (CELL THERAPEUTICS, INC., priority 1993, dated 1994)

Columns and labels:
[1] = test system: murine thymocyte proliferation; assay: Thymocyte proliferation stimulated by Con A and IL-1α; assay type: cell-based; conditions: Mus musculus, 2 h, added two hours prior to Con A and IL-1α
Protocol: In a first part of this example, compounds nos. 30, 33, 28 and 27 (see above for chemical names and structures) show effective inhibition of murine thymocyte proliferation stimulated by Con A and interleukin 1 alpha (IL-1α). Compounds nos. 30, 33, 28 and 27 were added to cell cultures two hours prior to activation with Con A and IL-1α in a thymocyte co-stimulation procedure akin to that discussed in example 21. […] IC50 values determined for each inventive compound tested are as follow: compound no. […] Background counts in the assay were less than 200 cpm.

Human stromal cells = assay: Stromal cell proliferation in response to PDGF-BB; assay type: cell-based; conditions: 50 ng/ml PDGF-BB
Protocol: This assay is useful for predicting therapeutic activity for preventing or treating restenosis, atherosclerosis and coronary artery disease. Human stromal cells were starved in serum-free media for one day and then stimulated with 50 ng/ml PDGF-BB. Inventive compounds, at various concentrations, were added one hour prior to PDGF stimulation. PDGF and tritiated thymidine were added and the cells allowed to incubate for one day, following addition of the PDGF and thymidine. 24 Hours later, the cells were harvested and counted by liquid scintillation counting. Results for compounds nos. Background counts (i.e., starved cells) were approximately 1% of control levels. […] 30, 28, 29, 32 and 31, respectively.

[2] = test system: murine thymocyte proliferation; assay: Thymocyte proliferation co-stimulated by ConA and IL-2 (tritiated thymidine); assay type: cell-based, Balb/C mice; conditions: for inhibition of thymocyte proliferation: ConA and IL-2 co-stimulation
Protocol: (§1) ConA, used to activate CD3, induces T-cell proliferation and differentiation. Thymuses, obtained from normal, female Balb/C mice, were dissociated and plated into 96-well plates at a density of 2 x 10^5 cells/well. ConA (0.25 mg/ml) and IL-2 (15 U/ml) were added to the wells. The cells were incubated for 4 days at 37°C. On day 4, the cells were pulsed with tritiated thymidine and incubated for an additional 4 hours. The amount of tritiated thymidine dye incorporated by the harvested cells was determined in a liquid scintillation counter. Drug doses (shown in figs. 1A and 1B) were added two hours prior to ConA and IL-2 activation.
as §1, with “Thymuses,” for “ConA, used to activate CD3, induces T-cell proliferation and differentiation. Thymuses,”, “37 °C.” for “37°C.”, “Doses” for “Drug doses”, “26A, 26B” for “1A”, “26C)” for “1B)”
In another in vitro protocol, thymocyte proliferation was induced by sub-mitogenic doses of Con A (0.25 µg/ml) and IL-2 (20 ng/ml). Cells were stimulated for 96 hours, prior to addition of ^3H-TdR for 4 hours. The cells were harvested and incorporation of ^3H-TdR was determined.
45 on co-stimulated thymocyte proliferation. In an assay procedure, murine thymocytes were stimulated with ConA and IL-2 with 1 µM compound no. 45 added either 1 hour prior to IL-2 (-1), simultaneous with IL-2 (0) or at various times following IL-2 addition (1-92 hour). At 92 hours the thymocytes were pulsed with ^3H-TdR, harvested and counted by scintillation 4 hours later.

CMV promoter activity = assay: microbe, parasite or virus in culture; assay type: cell-based; conditions: for IC50: transformed (adenovirus) cells
From the text: This example illustrates data of proliferative activity of various inventive compounds for inducing CMV promoter activity. The CMV promoter assay measures gene transcription and translation activity wherein any active compounds will have cytotoxic activity for inhibiting cellular protein synthesis in transformed (adenovirus) cells. Compound no. […]

[3] = test system: murine splenocyte proliferation; assay: Splenocyte (B cell) proliferation stimulated by anti-mu/anti-IgM and IL-4; assay type: cell-based; conditions: Mus musculus, anti-mu and IL-4 12.5 ng/ml
Protocol: This example illustrates inhibitive effects of compounds nos. 27 and 28 on murine splenocyte proliferation stimulated by anti-mu ([…]) and interleukin-4 (IL-4, 12.5 ng/ml). This in vitro assay, described above, is indicative of immune-suppressive/autoimmune treatment assay emphasizing humoral or B cell immune response. The inventive compound was added to the cells at the doses indicated two hours prior to activation with anti-mu and IL-4. Both compounds nos. 27 and 28 inhibited splenocyte proliferation in a dose-response manner. IC50 values for compounds nos. Background counts were less than 200 cpm.
In figure 57, results shown illustrate that inventive compound no. 45 inhibits B cell proliferation. Murine splenocytes were stimulated with anti-IgM antibodies (10 µg/ml) and murine IL-4 (12.5 ng/ml). Cells were pulsed with ^3HTdR at 44 hours, harvested 4 hours later, and the incorporation of ^3H-TdR was determined by liquid scintillation.

[4] = test system: proliferative PMBC response to allogeneic stimulation; assay: Two-way mixed lymphocyte reaction; assay type: cell-based
From the text: This example illustrates therapeutic potential for various autoimmune and inflammatory diseases of the inventive compounds by comparing potency (inhibitive activity) with cytotoxicity data obtained using the following indicative assay procedures. In a mixed lymphocyte reaction assay of compounds nos. […] Compounds nos. […] 2A and 2B. Both compounds nos. […] 2C.
Compound no. […] Compound no.

[5] = test system: mixed lymphocyte reaction assay culture; assay: Cell percent viability in mixed lymphocyte reaction culture; assay type: cell-based; conditions: 100 µM, six days of cell culture
Protocol: Cell percent viability in mixed lymphocyte reaction assay culture was determined after six days of cell culture. […] Control cells unexposed to drugs are generally 78 to 85% viable under these culture conditions. In this assay, all inventive compounds were present at 100 µM concentrations, generally well above corresponding IC50 values in this assay (see fig. 2D). […] Compounds nos.

[6] = test system: PDGF/IL-1 co-stimulation, proliferation; assay: PDGF/IL-1 co-stimulation proliferation assay; assay type: cell-based; conditions: fig. 14
From the text: The PDGF/IL-1 assay is useful in measuring in vitro activity, indicative of therapeutic potential for treating or preventing restenosis and reperfusion. Figure 14 reports IC50 bar graph results for a group of inventive compounds nos. 27, 28, 32, 30, 31, 32 and 34. In this predictive, in vitro model, compounds nos.

[7] = test system: IL-2 (alpha chain CD25) receptor; assay: IL-2 receptor expression on anti-CD3 stimulated splenocytes (flow cytometry); assay type: cell-based, mouse; conditions: anti-CD3 10 µg/ml, 1 µM
Protocol: This investigation illustrates IL-2 (alpha chain CD25) receptor expression on mouse splenoyctes. The IL-2 receptor is not expressed on resting T-cells, but is rapidly-induced by certain stimulants, e.g. antigen recognition or treatment with ConA or antibodies to CD3 (anti-CD3). IL-2-dependent proliferation requires IL-2 receptor expression. […] 49 (1 µM). Following overnight incubation, the splenocytes were stained with a fluoresceinated anti-IL-2 receptor antibody and fluorescence measured by flow cytometry. Figures 5A and 5B are frequency histograms of measurements for 20,000 cells per sample.
In another assay, inventive compound no. […] Murine splenocytes were activated for 24 hours with anti-CD3 (1 µg/ml), stained with a fluorescent antibody to CD25 and analyzed by flow cytometry.

[8] = test system: splenocyte IL-2-stimulated proliferation; assay: Splenocyte IL-2-stimulated proliferation; assay type: cell-based; conditions: Mus musculus, read-out: block of splenocyte IL-2-stimulated proliferation
[9] = test system: murine cytotoxic T-cell line, CT6; assay: Cytokine-induced proliferation of the cytotoxic T-cell line CT6 / CT-6.1; assay type: cell-based
Protocol: Another assay in this example was used to determine inhibitive activity of the inventive compounds on direct IL-2-induced proliferation in a murine cytotoxic T-cell line, CT6. The CT6 cell line is an IL-2-dependent cell line. IL-2 was removed from the medium for 24 hours prior to stimulation. […] 49, 50, 45, 43 or 41 were added at various concentrations. The cells were stimulated with IL-2 and amount of tritiated thymidine dye incorporated was measured 48 hours later.
In another related assay, inhibitory effects on CT6 cell proliferation is examined. CT6 cells are a murine IL-2 dependent, cytotoxic T cell line that proliferate in response to murine IL-2 (15 U/ml).
CT-6.1 cells were starved overnight and stimulated with IL-2 (20 ng/ml). Twenty hours later, cells were labeled for 4 hours with ^3H-TdR and counted by liquid scintillation.
CT6.1 cells were cultured with IL-2 with or without the addition of inventive compound no. 45 (2 µM) and viable cells counted for up to 8 days. On day 4, two cultures previously incubated with compound no. 45, were washed and recultured with fresh IL-2 with or without compound no. 45 (2 µM).
Procedurally, CT-6.1 cells were starved overnight and stimulated with either IL-2 (20 ng/ml), IL-4 (50 ng/ml) or IL-7 (25 ng/ml). ^3H-TdR was added at 20 hours, cells were harvested 4 hours later, and the incorporation of ^3H-TdR was determined.

IL-2 = IL-2 production in thymocytes stimulated with ConA and IL-1 (ELISA); assay type: cell-based, murine; conditions: ConA and IL-1, 4 days
From the text: Thymocytes were stimulated with ConA and IL-1 for 4 days with or without adding inventive compounds to the culture media. The supernatants were removed and assayed by ELISA for IL-2 levels by a commercially available kit.

mast cell degranulation = assay: Serotonin release assay for inhibition of mast cell degranulation; assay type: cell-based; conditions: for % Inhibition: Concentration 50 µM
From the text: This assay provides an in vitro model for an allergy and asthma therapeutic product. […]

[10] = Cytotoxicity to stromal cells in the stromal cell/PDGF stimulation assay; assay type: cell-based; conditions: human, read-out: concentrations with cytotoxic effects
Protocol: In conjunction with the human stromal cell/PDGF stimulation assay, cytotoxicity of the inventive compounds tested to stromal cells was also determined. […] Only compond no.

Saccharomyces cervisiae = assay: Yeast growth assay (anti-yeast and anti-fungal activity); assay type: cell-based; conditions: 100 µM
Protocol: This example illustrates the effects of a reference compound "X", and inventive compounds nos. 29, 30, 31, 32 and 33 (see above for names and structures) on yeast growth (Saccharomyces cervisiae)--using 100 µM concentrations--as compared with yeast activity in the absence of any compound additive (control). This assay measured anti-yeast and anti-fungal activity of the inventive compounds tested.

mouse thymocytes = assay: Con A priming followed by IL-2 restimulation of thymocytes; assay type: cell-based
Protocol: In a proliferation assay, mouse thymocytes were pre-incubated overnight with Con A (a "priming step"), washed, and restimulated with IL-2 in […] of inventive compounds. On day 4, the cells were pulsed with tritiated thymidine and allowed to incubate for an additional 4 hours. The cells were harvested and the amount of tritiated thymidine incorporated by the harvested cells was determined in a liquid scintillation counter. […] 3.
On day 4, the cells were pulsed with tritiated thymidine and allowed to incubate for an additional 4 hours. The cells were harvested and the amount of incorporated tritiated thymidine was determined in a liquid scintillation counter.

Row | Structure (SMILES) | IC50 (CMV promoter activity) [µM] | IC50 [1] [µM] | IC50 (Human stromal cells) [µM] | inhibition of thymocyte proliferation [2] | cytotoxicity (percent viability) [5] | inhibitive activity [6] | % Inhibition (mast cell degranulation) | yeast-growth inhibitive activity (Saccharomyces cervisiae) | other results
1 | CCCCCCCCCCNCC(O)CCCCCCCCCn1c(=O)c2c(ncn2C)n(C)c1=O (stereo not drawn) [compound no. 49, 1-(11-Decylamino-10-hydroxyundecyl)-3,7-dimethylxanthine] | – | – | – | – | – | – | – | – | IL-2 receptor expression [7]: has no effect on receptor expression; inhibition at 1 µM [8]: 90%; inhibition of direct IL-2-induced proliferation ([9]; added one hour prior to IL-2, thymidine at 48 hours): inhibited direct IL-2-induced CT6 proliferation; IL-2 production (IL-2): do not inhibit production of IL-2
2 | Cn1cnc2c1c(=O)n(CCCCC(O)CNCc1ccccc1)c(=O)n2C (stereo not drawn) [compound no. 13, 1-(5-hydroxy-6-(N-benzyl)aminohexyl)-3,7-dimethylxanthine] | > 500 | – | – | – | little or no cytotoxicity | – | – | – | inhibition at 100 µM (mast cell degranulation; Mast cell, Concentration 100 µM): 28%; IC50 ([4]; Lymphocyte, figs. 2A-2C): 55 µM
3 | CCCCCCCCNCC(O)CCCCCCCn1c(=O)c2c(ncn2C)n(C)c1=O (stereo not drawn) [compound no. 35, 1-(8-hydroxy-9-(N-octyl)aminononyl)-3,7-dimethylxanthine] | – | – | – | – | – | – | too toxic | – | inhibition of thymocyte proliferation, compound added with IL-2 (mouse thymocytes; Con A pre-treated cells, 1µM): dramatically inhibited thymocyte proliferation; proliferation in response to IL-2 after compound present during Con A priming (mouse thymocytes; compound during overnight Con A incubation, IL-2 without compound): normal thymocyte proliferation in response to IL-2 stimulation; IC50 values (range in words) ([2]; figs. 21A and 21B): low micromolar; inhibition of IL-2-induced proliferation ([9]; murine IL-2 (15 U/ml), figs. 21C and 21D): exhibited no activity in this assay

Continued, in another order:

Row | IC50 (CMV promoter activity) [µM] | Structure (SMILES) | IC50 [1] [µM] | IC50 (Human stromal cells) [µM] | inhibition of thymocyte proliferation [2] | cytotoxicity (percent viability) [5] | inhibitive activity [6] | % Inhibition (mast cell degranulation) | yeast-growth inhibitive activity (Saccharomyces cervisiae) | other results
4 | 50 | CCCCCCCCNCC(O)CCCCn1c(=O)c2c(ncn2C)n(C)c1=O (stereo not drawn) [compound no. 28, 1-(5-hydroxy-6-(N-octyl)aminohexyl)-3,7-dimethylxanthine] | 4.6 | 3.2 | the most potent immune-suppressive effects | the most cytotoxic at 100 µM | potent inhibitive activity | – | – | IC50 [3]: 5.2 µM; immune suppression activity ([4]; fig. 2D): the most potent compound of those assayed
5 | 15 | CCCCCCCCCCCNCC(O)CCCCn1c(=O)c2c(ncn2C)n(C)c1=O (stereo not drawn) [compound no. 30, 1-(6-Undecylamino-5-hydroxyhexyl)-3,7-dimethylxanthine] | 0.94 | 0.9 | the most potent immune-suppressive effects | – | potent inhibitive activity | too toxic | showed yeast-growth inhibitive activity | MCC [10]: > 900 nM; cytotoxicity, ranking among compounds tested (CMV promoter activity): the most cytotoxic compound tested
6 | 100 | CCCCCCN(CCCCCC)CC(O)CCCCn1c(=O)c2c(ncn2C)n(C)c1=O (stereo not drawn) [compound no. 33, 1-(5-hydroxy-6-(N,N-dihexyl)aminohexyl)-3,7-dimethylxanthine] | 8.6 | – | – | – | – | – | showed yeast-growth inhibitive activity | –
